Reference: patent US20260138957A1, “UREA-LINKED 2-AMINOIMIDAZOLE DIMER POTENTIATORS” (UNIVERSITY OF NOTRE DAME DU LAC, priority 2022, published 2026)
In brackets after ≈: the same amount, converted by molar mass.

What was measured:
[1] = test system: K. pneumoniae (strain KP 2146); assay: Standalone MIC against KP 2146; type: cell-based, Klebsiella pneumoniae; conditions: 9k alone
[2] = test system: AB5075; assay: Potentiation of azithromycin, erythromycin and rifampin against AB5075; type: cell-based, Acinetobacter baumannii
[3] = test system: K. pneumoniae 2146; assay: Combination with RIF against K. pneumoniae 2146; type: cell-based, Klebsiella pneumoniae; conditions: K. pneumoniae 2146, compared with the parent dimers
[4] = test system: A. baumannii; assay: CLR adjuvant activity with exogenous LOS added to the media; type: cell-based, Acinetobacter baumannii; conditions: LOS from AB5075 at 0.2 mg/mL or 0.5 mg/mL
Method: First, we examined the impact that addition of MgCl2 had on activity. Divalent cations, such as Mg^2+, are known to stabilize the outer membrane of gram-negative bacteria and the activity of membrane disruptors are known to be muted/abrogated by the addition of such cations. When the media was supplemented with MgCl2 (20 mM final concentration), activity was essentially abolished. As suppression of activity could conceivably originate from either blocking the compound's mechanism of action or simply making the membrane more impermeable that leads to the inability of the compound to penetrate the outer membrane, we next studied the impact that the addition of exogenous LOS had upon activity.

[5] = test system: P. aeruginosa (PAO1); assay: CLR MIC in combination with 9k against PAO1; type: cell-based, Pseudomonas aeruginosa
[6] = test system: P. aeruginosa (PAO1); assay: Standalone MIC against PAO1; type: cell-based, Pseudomonas aeruginosa; conditions: 9k alone
[7] = test system: Escherichia coli (EC 25922); assay: CLR MIC in combination with 9k against EC 25922; type: cell-based
[8] = test system: K. pneumoniae (strain KP 2146); assay: CLR MIC in combination with 9k against KP 2146; type: cell-based, Klebsiella pneumoniae
[9] = test system: HepG2 cells; assay: Cytotoxicity, XTT assay with HepG2 cells; conditions: read-out: IC50, HepG2 cells; mammalian cell toxicity
[10] = test system: red blood cells; assay: Hemolysis assay; type: cell-based; conditions: 1% Triton X as 100% lysis control
[11] = test system: AB 5075; assay: Colistin MIC in absence or presence of compounds against AB 5075; type: cell-based, Acinetobacter baumannii; conditions: AB5075
Text: However, dropping LOS comes with fitness costs such as reduced growth rates, lower virulence, and increased sensitivity towards certain antibiotics.

[12] = Microsomal (metabolic) stability; type: in vitro ADME; conditions: 60 minutes
[13] = test system: membrane integrity; assay: BacLight assay of membrane integrity; type: cell-based; conditions: in comparison to untreated control
Text: We then quantified how compound 9k impacted membrane integrity using the BacLight assay. Compound 9k had essentially no impact on the membrane in comparison to untreated control and produced a −1.2±2.2% change in membrane permeability.

[14] = test system: A. baumannii strain 5075 (AB5075); assay: Clarithromycin potentiation against AB5075 (CLR MIC in presence of adjuvant); type: cell-based, Acinetobacter baumannii; conditions: for CLR MIC / Fold Reduction of CLR MIC / Clarithromycin (CLR) MIC: AB5075
[15] = Plasma stability; type: in vitro ADME; conditions: 4 hours
[16] = test system: A. baumannii strain 5075 (AB5075); assay: Standalone MIC against AB5075 (compound or antibiotic alone); type: cell-based, Acinetobacter baumannii; conditions: Acinetobacter baumannii; compound alone, AB5075
Text: Dimers were first analyzed for standalone toxicity against AB5075.

[17] = test system: Escherichia coli (EC 25922); assay: Standalone MIC against EC 25922; type: cell-based; conditions: 9k alone, read-out: Compound MIC
[18] = test system: panel of A. baumannii isolates; assay: CLR potentiation against panel of A. baumannii isolates; type: cell-based, Acinetobacter baumannii; conditions: 25 AB strains, adjuvant at 10 μM (4.8 μg/mL) or less
[19] = AB5075, adjuvant at 7.5 μM (3.6 μg/mL)

For `Nc1nc(-c2ccc(NC(=O)Nc3cccc(-c4c[nH]c(N)n4)c3F)cc2F)c[nH]1` [Compound 9k, 1-(3-(2-amino-1H-imidazol-4-yl)-2-fluorophenyl)-3-(4-(2-amino-1H-imidazol-4-yl)-3-fluorophenyl)urea], the “Compound MIC” value [1] was greater than 200 µM, the “fold decrease of RIF MIC” value ([2]; AB5075, adjuvant at 5 μM (2.4 μg/mL)) was 32 fold and the “fold decrease of AZM MIC” value [2, 19] was “at least 64 fold”. The “fold decrease of ERY MIC” value [2, 19] was “at least 64 fold”, the “fold decrease of RIF MIC” value ([2]; AB5075, adjuvant at 10 μM) was 32 fold and the “activity in combination with AZM, ERM and RIF (in words)” value ([2]; AB5075, adjuvant at ≤30% their MIC) was “significant activity”. The “potentiation of RIF (in words)” value [3] was “greater potentiation activity at lower concentrations”, the “CLR adjuvant activity with exogenous LOS (in words)” value [4] was “no loss of adjuvant activity” and the “fold potentiation of CLR” value [5] was “at least 256 fold”. The “CLR MIC + 9k” value ([5]; 9k at 20 μM) was 4/8, the “CLR MIC + 9k” value ([5]; 9k at 30 μM) was 0.5 µg/mL and the “Compound MIC” value [6] was greater than 200 µM. For the same molecule, the “fold potentiation of CLR” value [7] was “at least 256 fold”, the “CLR MIC + 9k” value ([7]; 9k at 2.5 μM) was 32 µg/mL and the “CLR MIC + 9k” value ([7]; 9k at 3.0 μM) was 4 µg/mL. For the same molecule, the “CLR MIC + 9k” value ([7]; 9k at 3.75 μM) was 0.125 µg/mL, the “fold potentiation of CLR” value [8] was “at least 256 fold” and the “CLR MIC + 9k” value ([8]; 9k at 7.5 μM) was 16 µg/mL. The “CLR MIC + 9k” value ([8]; 9k at 10 μM) was 2 µg/mL, the “CLR MIC + 9k” value ([8]; 9k at 30 μM) was 1 µg/mL and the IC50 [9] was 431 µM. For the same molecule, the “lytic effect on red blood cells (in words)” value ([10]; compound at 10 μM in combination with 0.0625 μg/mL clarithromycin) was “little to no lytic effect”, the “lytic effect on red blood cells (in words)” value ([10]; compound) was “little to no lytic effect” and the “potentiation of colistin (in words)” value [11] was “did not potentiate the activity”. The “Colistin MIC” value ([11]; adjuvant at 30 μM) was 2 µg/mL, the “microsomal stability (in words)” value [12] was “steady concentration over 60 minutes” and the “change in membrane permeability” value [13] was −1.2±2.2%. For the same molecule, the “lowest concentration at which the adjuvant suppressed the clarithromycin MIC to 2.0 μg/mL” value ([14]; AB5075, value in brackets) was 0.72 µg/mL, the “CLR MIC” value ([14]; adjuvant at 1.5 μM) was 2 µg/mL and the “Fold Reduction of CLR MIC” value ([14]; adjuvant at 1.5 μM) was 16 fold. The “CLR MIC” value ([14]; adjuvant at 2.5 μM) was 0.125 µg/mL, the “Fold Reduction of CLR MIC” value ([14]; adjuvant at 2.5 μM) was 256 fold and the “Clarithromycin (CLR) MIC” value ([14]; adjuvant at 5 μM) was 0.0625 µg/mL. For the same molecule, the “Fold Reduction of CLR MIC” value ([14]; adjuvant at 5 μM) was 512 fold, the “Clarithromycin (CLR) MIC” value ([14]; adjuvant at 7.5 μM) was no more than 0.0625 µg/mL and the “Fold Reduction of CLR MIC” value ([14]; adjuvant at 7.5 μM) was no less than 512 fold. For the same molecule, the “Clarithromycin (CLR) MIC” value ([14]; adjuvant at 10 μM) was no more than 0.0625 µg/mL, the “Fold Reduction of CLR MIC” value ([14]; adjuvant at 10 μM) was no less than 512 fold and the “Clarithromycin (CLR) MIC” value ([14]; adjuvant at 20 μM) was no more than 0.0625 µg/mL. For the same molecule, the “Fold Reduction of CLR MIC” value ([14]; adjuvant at 20 μM) was no less than 512 fold, the “Clarithromycin (CLR) MIC” value ([14]; adjuvant at 30 μM) was no more than 0.0625 µg/mL and the “Fold Reduction of CLR MIC” value ([14]; adjuvant at 30 μM) was no less than 512 fold. The “plasma stability (in words)” value [15] was “steady concentration over 4 hours”, the MIC [16] was greater than 200 µM and the MIC [17] was 12.5 µM (≈ 5.13 µg/mL). The “lowering of CLR MIC values” [18] was “at least four-fold”.
